In PubChem BioAssay (NCI):
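Grown in 96-well plates, cells were treated for 48 hours with each compound at five concentrations. Insufficient inhibition: endpoint recorded as highest concentration tested. Here, GI50 denotes the concentration required for 50% inhibition of growth. TGI: concentration producing complete growth inhibition.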

Columns and labels:
Assay in all cases: NCI-60 cell line screen, 48 h
M14 melanoma = test system: M14 melanoma
OVCAR-3 ovarian = test system: OVCAR-3 ovarian
NCI-H23 lung = test system: NCI-H23 lung
MCF7 breast = test system: MCF7 breast
RXF 393 renal = test system: RXF 393 renal
SNB-19 CNS = test system: SNB-19 CNS
SN12C renal = test system: SN12C renal
HOP-62 NSCLC = test system: HOP-62 NSCLC
EKVX NSCLC = test system: EKVX NSCLC
UACC-62 melanoma = test system: UACC-62 melanoma

SMILES | GI50 (M14 melanoma) [µM] | TGI (M14 melanoma) [µM] | GI50 (OVCAR-3 ovarian) [µM] | TGI (OVCAR-3 ovarian) [µM] | GI50 (NCI-H23 lung) [µM] | TGI (NCI-H23 lung) [µM] | GI50 (MCF7 breast) [µM] | TGI (MCF7 breast) [µM] | GI50 (RXF 393 renal) [µM] | TGI (RXF 393 renal) [µM] | GI50 (SNB-19 CNS) [µM] | TGI (SNB-19 CNS) [µM] | GI50 (SN12C renal) [µM] | TGI (SN12C renal) [µM] | GI50 (HOP-62 NSCLC) [µM] | TGI (HOP-62 NSCLC) [µM] | GI50 (EKVX NSCLC) [µM] | TGI (EKVX NSCLC) [µM] | GI50 (UACC-62 melanoma) [µM] | TGI (UACC-62 melanoma) [µM]
COc1ccc(CN(C)c2ccc(CO)c(Cl)c2)cc1 | 22.7 | > 95.5 | 2.93 | 12.8 | 12.9 | > 100 | 0.892 | > 64.9 | 10.9 | > 79.8 | 34 | > 100 | 21.5 | > 100 | 7.58 | > 100 | 22 | > 91.6 | 0.274 | 2.24
O=C1c2ccccc2-c2c1c1ccccc1c(=O)n2CCCNCCCn1ccnc1 | 0.51 | 1.13 | 1.63 | 6.48 | 0.411 | 1.53 | 0.772 | 12.7 | 1.48 | 4.31 | 1.47 | 13.1 | 0.367 | 1.29 | 0.29 | 1.13 | 4.75 | 12.2 | 1.72 | 5.95
COc1cc(OC)c(/C=C/S(=O)(=O)Cc2cnc(OC)c(N)c2)c(OC)c1 | < 0.0173 | > 100 | 0.0264 | > 100 | < 0.0262 | > 100 | < 0.0155 | > 100 | < 0.01 | > 100 | < 0.0223 | > 100 | < 0.0232 | > 100 | < 0.0185 | > 100 | 0.223 | > 100 | < 0.01 | > 100
COc1ccc(N2C(=O)CC(Cl)C2=O)cc1 (stereo not drawn) |  | > 100 |  | 28.7 |  | 48.5 |  | > 100 |  | 40.7 |  | > 100 |  | 32.7 |  | > 100 |  | > 100 |  | 46.5
Nc1c(C(=O)c2ccc(Cl)cc2)sc(Nc2ccccc2)c1-c1nc2ccccc2s1 | 2.65 | > 100 |  |  | 1.64 | 18.5 | 1.65 | > 100 | 10.5 | 33.1 | 4.56 | > 100 | > 20.2 | > 100 | 3.71 | 65.8 | 2 | > 100 | 2.27 | > 100
CC(C)c1ccc(C(=O)Nc2nc3ccc(O)cc3s2)cc1 | 0.167 | 46.5 | 1.36 | 51.4 | 3.52 | > 100 | 0.442 | 48.2 | 2.6 | 13.9 | 8.27 | > 100 | 2.18 | > 100 | 1.74 | > 100 | 2.34 | > 100 | 0.124 | > 100
